Measured values published in patent publication US20250122520A1, “Application of OBF1 Transcription Factor in Chromosome Doubling of Plant and Transgenic Plant Cultivation Method” (JIANGSU ACADEMY OF AGRICULTURAL SCIENCES, priority 2023, published 2025).

Experiments:
Assay type in all cases: in vivo
petunia = test: Ploidy identification by flow cytometer of OBF1 over-expressing petunias screened with kanamycin; conditions: for Proportion of chromosome doubling: OBF1 over-expression
Protocol: (9) Two days later, the leaves were transferred to a regeneration culture medium with corresponding screening resistance, the culture medium was replaced every two to three weeks, and the leaves waited for differentiation.
(14) The ploidy of the plants was identified by a flow cytometer, a doubling ratio of the plants under different treatment concentrations of kanamycin was calculated, and the results are shown in Table 2 and FIGS. 10A-10C.

tomatoes = test: Ploidy identification by flow cytometer of OBF1 over-expressing tomatoes screened with kanamycin; conditions: tomato; for Proportion of chromosome doubling: OBF1 over-expression
Protocol: (5) The explants were transferred and placed into the screening culture medium; the photoperiod was 18/6 h, the temperature was 22-25° C., the humidity was 60%, and concentration settings of kanamycin and compositions of culture media were shown in Table 3;
(6) The ploidy of the plants was identified by a flow cytometer, the doubling ratio of the plants under different screening concentrations of kanamycin was calculated, and the results are shown in Table 4 and FIGS. 12A-12B.

tobaccoes = test: Ploidy identification by flow cytometer of OBF1 over-expressing tobaccoes screened with kanamycin; conditions: tobacco; for Proportion of chromosome doubling: OBF1 over-expression
Protocol: (5) The leaves were transferred to a screening culture medium with corresponding screening resistance; the culture medium was replaced every two to three weeks, and the leaves waited for differentiation.
(8) The ploidy of the plants was identified by a flow cytometer, the doubling ratio of the plants under different screening concentrations of kanamycin was calculated, and the results are shown in Table 6 and FIGS. 14A-14B.

Compound: NC[C@H]1O[C@H](O[C@H]2[C@H](O)[C@@H](O[C@H]3O[C@H](CO)[C@@H](O)[C@H](N)[C@H]3O)[C@H](N)C[C@@H]2N)[C@H](O)[C@@H](O)[C@@H]1O [kanamycin]
- Proportion of chromosome doubling (petunia; kanamycin 50 mg/L): 0%
- Proportion of chromosome doubling (petunia; kanamycin 100 mg/L): 63.6%
- Proportion of chromosome doubling (petunia; kanamycin 150 mg/L): 80%
- Chromosome-doubled plant (petunia; kanamycin 50 mg/L, of 27 transgenic plants): 0 plant
- Chromosome-doubled plant (petunia; kanamycin 100 mg/L, of 22 transgenic plants): 14 plant
- Chromosome-doubled plant (petunia; kanamycin 150 mg/L, of 6 transgenic plants): 4 plant
- Proportion of chromosome doubling (tomatoes; kanamycin 50 mg/mL): 0%
- Proportion of chromosome doubling (tomatoes; kanamycin 100 mg/mL): 60%
- Chromosome-doubled plant (tomatoes; kanamycin 50 mg/mL, of 30 transgenic plants): 0 plant
- Chromosome-doubled plant (tomatoes; kanamycin 100 mg/mL, of 10 transgenic plants): 6 plant
- Proportion of chromosome doubling (tobaccoes; kanamycin 50 mg/mL): 0%
- Proportion of chromosome doubling (tobaccoes; kanamycin 100 mg/mL): 33.3%
- Chromosome-doubled plant (tobaccoes; kanamycin 50 mg/mL, of 10 transgenic plants): 0 plant
- Chromosome-doubled plant (tobaccoes; kanamycin 100 mg/mL, of 20 transgenic plants): 6 plant
